{"source": "paper PMC10180197", "about": "“Novel Pyrimidine Derivatives as Antioxidant and Anticancer Agents: Design, Synthesis and Molecular Modeling Studies” (Molecules, 2023)", "key": {"[1]": {"assay": "Inhibition of AAPH induced linoleic acid peroxidation", "method": "For the lipid peroxidation study, 2,2′-Azobis(2-methylpropionamidine) dihydrochloride (AAPH) was used as the generator of peroxy radicals and sodium linoleate as the substrate that undergoes peroxidation. The conversion of linoleic acid to 13-hydroperoxy-linoleic acid was recorded at 234 nm. The change of absorbance reflects the possible antioxidant activity of the tested compounds, in comparison with the reference compound, Trolox.\nIn vitro study was performed as reported previously by our group. AAPH was used as a free radical generator of alkyl peroxyl radicals. For this experimental procedure, 10 μL of the tested compound (from the stock solution), 10 μL sodium linoleate (16 mM), 50 μL AAPH (40 mM) and 930 μL phosphate-buffered solution (pH 7.4) were added in a UV cuvette (1 mL), pre thermostated at 37 °C. The ability of the compounds to prevent the oxidation of linoleic acid from alkyl peroxyl radicals was evaluated by recording the change of absorbance at 234 nm, due to the conversion of linoleic acid to 13-hydroperoxy-linoleic acid. Trolox was used as the reference."}, "HaCaT cell line": {"tested_on": "HaCaT cell line", "assay": "MTT cell viability assay, HaCaT", "type": "cell-based, human", "conditions": "24 h", "method": "(§1) The MTT (3-(4,5-dimethylthiazol-2-yl)-2,5-diphenyltetrazolium bromide) assay is a colorimetric method that is used for the evaluation of cell viability. MTT is converted into colored formazan crystals, indicating the activity of mitochondria and therefore the viability of the cells. Unlike dead cells, the metabolic processes of living cells are functional, meaning that the dehydrogenase enzymes are able to reduce the yellow MTT salt solution to purple crystals, at 37 °C. The intensity of the sample’s color, due to the amount of formazan crystals, is proportional to the number of the living cells in it. Additionally, the colored product is dissolved in various solubilizing agents, such as dimethyl sulfoxide (DMSO). The colored products can be quantitatively measured at 450 nm with a plate reader spectrophotometer. In this study, the human epidermal keratinocyte cell line (HaCaT) was treated with different concentrations (100 μM, 50 μM, 10 μM and 1 μM) of the tested compounds and then the viability rates at each effect were calculated.\n(§2) Τhe MTT assay was used to evaluate cell viability or cell toxicity, depending on the cell line being tested. The experimental procedure was performed in a 96-well plate, where the cells were seeded and incubated (37 °C, 5% CO2) for 24 h to grow and cover the surface of the wells. Τhe seeding concentrations for the HaCaT and A549 cells were 30 × 10^4 cells/mL and 20 × 10^4 cells/mL, respectively. After the first incubation, the solutions of the compounds (with different concentrations) were added to the adherent cells and incubated for another 24 h. The compounds were tested in triplicate against the control (only cells in medium), the blank (only medium) and the positive/negative control (cells in 100 μM silibinin solution) triplicates. Silibinin, a flavonoid with known anticancer activities, was used as a negative control for the cell viability assay and as positive control for the cytotoxicity testing assay. The light-sensitive MTT-standard solution was prepared by dissolving 1 mg/mL MTT in PBS and then filtrated (in a […] filter (Millipore, Carrigtwohill, Ireland)). On the third day, an appropriate amount of ΜΤΤ solution was added to each well and the plate was incubated for 4 h. During the incubation time, the formazan crystals were formed, which were then dissolved with 100 μL DMSO per well. Finally, the plate was stirred for 30 min, and the optical density (OD) was measured in a plate reader spectrophotometer at 450 nm."}, "[2]": {"assay": "MTT cell viability assay, HaCaT", "type": "cell-based, human", "conditions": "human, HaCaT cells (epidermal keratinocyte cell line); for viability at 24 h, 10 μM: 10 μΜ", "method": "as §1, §2"}, "A549 cell line": {"tested_on": "A549 cell line", "assay": "MTT cytotoxicity assay, A549", "type": "cell-based, human", "conditions": "Homo sapiens, 24 h; for cytotoxicity at 10 µM: A549, 10 μΜ, read-out: % Cell Toxicity 10 μΜ; for cytotoxicity at 50 µM: A549, 50 μΜ, read-out: % Cell Toxicity 50 μΜ; for cytotoxicity at 100 µM: A549, 100 μΜ, read-out: % Cell Toxicity 100 μΜ", "method": "The compounds of this study were also tested for their cytotoxic effects against the adenocarcinomic human alveolar basal epithelial cell line (A549) at different concentrations (100 μM, 75 μΜ, 50 μM and 10 μM).\nas §2"}, "[3]": {"assay": "Experimental determination of lipophilicity as RM values (RP-TLC)", "type": "physicochemical", "conditions": "methanol/water 70/30 v/v, 24 °C, SD < 10%", "from_the_text": "Lipophilicity is an important physicochemical parameter of a drug candidate, linking solubility and membrane permeability with the ADMET (absorption, distribution, metabolism, elimination and toxicity) properties and the overall suitability of a molecule. Reversed-phase thin-layer chromatography was the method used to experimentally determine the lipophilic character of the synthesized compounds as RM values (Table 2). Lipophilicity was also theoretically calculated as clog P values using the Bio-Loom program of BioByte Corp (http://www.biobyte.com/, (accessed on 1 March 2023)). An attempt was made to correlate the experimental RM values with the theoretically calculated clog P values (Table 2). […] This disagreement could be attributed to several factors, e.g., different solvation, silanophilic interactions and hydrogen bonding.\nLipophilicity as RM values was determined through reversed-phase TLC (RP-TLC) on silica gel plates impregnated with 5% v/v liquid paraffin in light petroleum ether. Methanol/water mixture (70/30, v/v) was used as mobile phase. Closed chromatography tanks saturated with the mobile phase at 24 °C were used for the development of the plates while the spots were detected under UV light. For the determination of RM values, five individual measurements of Rf values were recorded, and the RM values were derived from the following Equation (1). (1) RM=log1/Rf−1"}, "[4]": {"assay": "Reducing activity of the stable radical DPPH", "method": "All the synthesized compounds were studied for their ability to interact with the stable free 2,2-diphenyl-1-picrylhydrazyl radical (DPPH) at a concentration of 100 μM after 20 min and 60 min (Table 4). This assay is based on the reduction of DPPH by transferring one electron from the antioxidant.\nIn vitro study was performed as reported previously by our group. In this experiment, 20 μL of the tested compound (from the stock solution), 980 μL EtOH and 1 mL ethanolic solution of DPPH (100 μM) were added in a testing tube in a final volume of 2 mL. The free radical scavenging ability was evaluated by recording the change of absorbance at 517 nm, produced by the reduction of DPPH, after 20 and 60 min at room temperature."}}, "note": "Read-outs that look alike come from different tables or passages of the source."}
{"smiles": "O=c1[nH]c(=S)[nH]c2nc(-c3ccc(Cl)cc3)cc(-c3ccc(Cl)cc3)c12", "note": "[Compound 2f, 5,7-bis(4-chlorophenyl)-2-thioxo-2,3-dihydropyrido [2,3-d]pyrimidin-4(1H)-one]", "values": [{"measurement": "AAPH % Inhibition 100 μM", "setting": "[1]", "result": "no activity"}, {"measurement": "AAPH % Inhibition 100 μM", "setting": "[1]; 100 µM", "result": "no"}, {"measurement": "% Cell Viability 10 μΜ", "setting": "HaCaT cell line; 10 μΜ", "result": "no"}, {"measurement": "% Cell Viability 100 μΜ", "setting": "HaCaT cell line", "result": "no"}, {"measurement": "viability at 24 h, 1 μM", "setting": "[2]; 1 μΜ", "result": 73.4, "unit": "%"}, {"measurement": "cytotoxicity at 10 µM", "setting": "A549 cell line", "result": 48.6, "unit": "%"}, {"measurement": "cytotoxicity at 50 µM", "setting": "A549 cell line", "result": 88.1, "unit": "%"}, {"measurement": "cytotoxicity at 100 µM", "setting": "A549 cell line", "result": 100, "unit": "%"}, {"measurement": "RM", "setting": "[3]", "result": "−0.91"}, {"measurement": "RA % 100 μM 20 min", "setting": "[4]", "result": "no"}, {"measurement": "RA % 100 μM 60 min", "setting": "[4]", "result": "no"}]}
{"smiles": "O=c1[nH]c(=S)[nH]c2nc(-c3ccccc3)cc(-c3ccc(Cl)cc3Cl)c12", "note": "[Compound 2g, 5-(2,4-dichlorophenyl)-7-phenyl-2-thioxo-2,3-dihydropyrido [2,3-d]pyrimidin-4(1H)-one]", "values": [{"measurement": "AAPH % Inhibition 100 μM", "setting": "[1]", "result": 95, "unit": "%"}, {"measurement": "% Cell Viability 100 μΜ", "setting": "HaCaT cell line", "result": "no"}, {"measurement": "viability at 24 h, 10 μM", "setting": "[2]", "result": 56.7, "unit": "%"}, {"measurement": "cytotoxicity at 50 µM", "setting": "A549 cell line", "result": 79.1, "unit": "%"}, {"measurement": "cytotoxicity at 100 µM", "setting": "A549 cell line", "result": 79.4, "unit": "%"}, {"measurement": "RM", "setting": "[3]", "result": "−0.60"}, {"measurement": "RA % 100 μM 20 min", "setting": "[4]", "result": 1, "unit": "%"}, {"measurement": "RA % 100 μM 60 min", "setting": "[4]", "result": "no"}]}
{"smiles": "O=c1[nH]c(=S)[nH]c2nc(-c3ccc(Cl)cc3)cc(-c3ccc(Cl)cc3Cl)c12", "note": "[Compound 2h, 7-(4-chlorophenyl)-5-(2,4-dichlorophenyl)-2-thioxo-2,3-dihydropyrido [2,3-d]pyrimidin-4(1H)-one]", "values": [{"measurement": "AAPH % Inhibition 100 μM", "setting": "[1]", "result": 99, "unit": "%"}, {"measurement": "% Cell Viability 100 μΜ", "setting": "HaCaT cell line", "result": "no"}, {"measurement": "viability at 24 h, 10 μM", "setting": "[2]", "result": 100, "unit": "%"}, {"measurement": "viability at 24 h, 50 μM", "setting": "[2]; 50 μΜ", "result": 89.9, "unit": "%"}, {"measurement": "cytotoxicity at 10 µM", "setting": "A549 cell line", "result": 49.1, "unit": "%"}, {"measurement": "cytotoxicity at 50 µM", "setting": "A549 cell line", "result": 76.9, "unit": "%"}, {"measurement": "cytotoxicity at 100 µM", "setting": "A549 cell line", "result": 100, "unit": "%"}, {"measurement": "RM", "setting": "[3]", "result": "−0.48"}, {"measurement": "RA % 100 μM 20 min", "setting": "[4]", "result": "no"}, {"measurement": "RA % 100 μM 60 min", "setting": "[4]", "result": "no"}]}
